Measurements reported in patent US10131670B2, “Bicyclic heteroaryl derivatives as CFTR potentiators” (CYSTIC FIBROSIS FOUNDATION THERAPEUTICS, INC., priority 2016, dated 2018).

Experiments:
G551D = G551D (Homo sapiens, UniProt P13569, G551D); details: G551D patients; cited from earlier work
F508del = F508del (Homo sapiens (Human), UniProt P13569, DEL508-508); details: F508del homozygote patients; cited from earlier work
CFTR = CFTR (Homo sapiens, UniProt P13569); assay: Ussing Chamber Electrophysiology Assay of CFTR Potentiation in CF Bronchial Epithelial Cells; assay type: cell-based; details: primary CF hBE cells, short-circuit current, scaled to DMSO (0%) and positive control potentiator (100%)
Source text: Ussing Chamber Electrophysiology Assay of CFTR Potentiation in CF Bronchial Epithelial Cells
Primary cystic fibrosis human bronchial epithelial (CF hBE) cells were expanded and cultured according to published methods (Neuberger et al., Ch. 4 of Cystic Fibrosis, Methods in Molecular Biology vol. 741, pp. 39-54 (2011)). Well-differentiated cells (>30 days at air/liquid interface) on Snapwell filters (Corning Costar, cat. no. 3801) were mounted in Ussing chambers (Physiologic Instruments, Inc., San Diego, Calif.). F508del/F508del cultures were assayed at 27° C. and G551D/F508del cells were assayed at 35° C. HEPES buffered physiological saline (composition (in mM): 137 NaCl, 4 KCl, 1 MgCl2, 1.8 CaCl2, 10 HEPES Na) was used in both apical and basolateral chambers. Chambers were bubbled with air to promote mixing and the voltage was clamped to zero. Amiloride (30 uM), forskolin (10 uM), test compound (4 increasing concentrations), and CFTRinh-172 (20 uM) were added sequentially with 20-25 minutes between additions. Short-circuit currents were acquired and analyzed using LabScribe2. Test compound responses were scaled relative to responses for DMSO (0%) and the maximal response of a positive control potentiator (100%).

F508del V470 CFTR = F508del V470 CFTR (Homo sapiens, UniProt P13569, DEL508-508); assay: FRT Ion Flux Assay of F508del CFTR Potentiation; assay type: cell-based; details: FRT cells expressing F508del V470 CFTR and halide-sensitive YFP, forskolin 20 uM, 30 min
Procedure: FRT Ion Flux Assay of F508del CFTR Potentiation
Fischer rat thyroid (FRT) cell lines stably expressing recombinant F508del V470 CFTR and halide-sensitive yellow fluorescent protein (Pedemonte et al., J. Clin. Invest. 115(9) 2564-71 (2005)) were seeded at 25,000 cells/well in 50 uL/well of culture medium into black-walled, clear bottom tissue-culture-treated 384-well plates (Corning, cat. no. 3712). After one day, the cells were pre-incubated at 27° C./5% CO2 for 16-24 hours. The cells were then washed with dPBS and treated with forskolin (20 uM) and test compound for 30 min by addition of 20 uL of compound dilution buffer (dPBS containing forskolin and test compound). Plates were loaded into FLIPR384 fluorescence imaging plate reader (Molecular Devices). After an initial fluorescence reading, iodide buffer (25 uL) (composition (in mM): 137 NaI, 1.5 K2PO4, 8.1 NaH2PO4, 2.7 KCl, 0.5 MgCl2, 1 CaCl2) was added and a second fluorescence reading was made after approximately 21 seconds. Data treatment involved division of the second fluorescence reading by the initial fluorescence reading, then scaling of the resulting normalized endpoint fluorescence with respect to the responses for DMSO (0%) and a positive control potentiator (100%).

Chain of F508del V470 CFTR (P13569 with tags, fused parts or gaps DEL508-508): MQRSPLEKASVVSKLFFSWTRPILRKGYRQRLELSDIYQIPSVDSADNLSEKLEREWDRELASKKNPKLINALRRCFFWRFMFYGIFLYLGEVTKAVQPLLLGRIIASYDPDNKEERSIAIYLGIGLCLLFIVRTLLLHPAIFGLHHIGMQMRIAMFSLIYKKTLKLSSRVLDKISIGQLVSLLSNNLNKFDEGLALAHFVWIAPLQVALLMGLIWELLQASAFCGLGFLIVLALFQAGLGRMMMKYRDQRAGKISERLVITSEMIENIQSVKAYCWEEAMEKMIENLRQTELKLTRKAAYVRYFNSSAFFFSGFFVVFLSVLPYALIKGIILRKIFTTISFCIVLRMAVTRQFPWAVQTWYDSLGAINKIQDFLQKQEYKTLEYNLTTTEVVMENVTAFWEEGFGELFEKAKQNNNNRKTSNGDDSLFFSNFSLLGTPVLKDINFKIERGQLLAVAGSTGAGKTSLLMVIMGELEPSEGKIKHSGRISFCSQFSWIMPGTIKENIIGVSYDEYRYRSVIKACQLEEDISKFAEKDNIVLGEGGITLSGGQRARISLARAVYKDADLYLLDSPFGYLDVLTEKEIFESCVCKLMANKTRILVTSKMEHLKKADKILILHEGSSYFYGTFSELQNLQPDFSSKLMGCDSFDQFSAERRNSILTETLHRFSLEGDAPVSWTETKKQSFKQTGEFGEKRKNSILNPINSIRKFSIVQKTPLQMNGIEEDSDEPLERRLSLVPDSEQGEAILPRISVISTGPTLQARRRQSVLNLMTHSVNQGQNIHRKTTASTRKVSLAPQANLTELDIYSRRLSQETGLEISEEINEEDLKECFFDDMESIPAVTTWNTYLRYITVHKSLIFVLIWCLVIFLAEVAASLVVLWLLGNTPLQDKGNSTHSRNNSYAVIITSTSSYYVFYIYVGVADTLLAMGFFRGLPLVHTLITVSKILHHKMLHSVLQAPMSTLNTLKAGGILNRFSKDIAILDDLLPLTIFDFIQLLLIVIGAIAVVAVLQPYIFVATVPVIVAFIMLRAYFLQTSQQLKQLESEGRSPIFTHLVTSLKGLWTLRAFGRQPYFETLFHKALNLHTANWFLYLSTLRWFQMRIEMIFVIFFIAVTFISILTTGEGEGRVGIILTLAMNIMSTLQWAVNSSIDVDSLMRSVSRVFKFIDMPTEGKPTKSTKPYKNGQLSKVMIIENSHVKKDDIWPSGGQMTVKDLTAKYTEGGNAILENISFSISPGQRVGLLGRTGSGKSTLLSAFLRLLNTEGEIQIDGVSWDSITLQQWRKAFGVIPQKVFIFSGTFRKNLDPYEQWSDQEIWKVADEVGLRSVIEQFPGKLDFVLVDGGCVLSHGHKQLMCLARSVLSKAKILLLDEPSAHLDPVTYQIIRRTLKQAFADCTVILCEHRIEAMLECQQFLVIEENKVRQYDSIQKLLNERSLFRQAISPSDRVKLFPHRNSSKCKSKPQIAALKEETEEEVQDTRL
Chain of F508del (P13569 other isoform, or with tags, fused parts or gaps del F508-F508): as the sequence (P13569 with tags, fused parts or gaps DEL508-508) above

EC50 (CFTR) [nM]	EC50 (F508del V470 CFTR) [nM]	Structure (SMILES)	percent predicted FEV1 increased (G551D)	improvement with monotherapy (F508del)
73.7	253	CCC(c1cn(-c2cc(F)ccc2F)nn1)c1cc(-c2cnc(C(F)(F)F)nc2)c2c(N)ncnn12 (single isomer, unassigned) [Example 61, 7-{1-[1-(2,5-difluorophenyl)-1H-1,2,3-triazol-4-yl]propyl}-5-[2-(trifluoromethyl)pyrimidin-5-yl]pyrrolo[2,1-f][1,2,4]triazin-4-amine]	–	–
10.4	14	CCC(c1cn(-c2ccccc2F)nn1)c1cc(-c2cncnc2OC)c2c(N)ncnn12 (single isomer, unassigned) [Example 65, 7-{1-[1-(2-fluorophenyl)-1H-1,2,3-triazol-4-yl]propyl}-5-(4-methoxypyrimidin-5-yl)pyrrolo[2,1-f][1,2,4]triazin-4-amine]	–	–
177	479	CCC(c1cn(-c2ccc(F)c(F)c2)nn1)c1cc(-c2cnc(C(F)(F)F)nc2)c2c(N)ncnn12 (single isomer, unassigned) [Example 64, 7-{1-[1-(3,4-difluorophenyl)-1H-1,2,3-triazol-4-yl]propyl}-5-[2-(trifluoromethyl)pyrimidin-5-yl]pyrrolo[2,1-f][1,2,4]triazin-4-amine]	–	–
74.4	50.3	CCC(c1cn(-c2ccccc2)nn1)n1nc(-c2cnc(C(F)(F)F)nc2)c2c(N)ncnc21 (single isomer, unassigned) [Example 94, 1-[1-(1-phenyl-1H-1,2,3-triazol-4-yl)propyl]-3-[2-(trifluoromethyl)pyrimidin-5-yl]-1H-pyrazolo[3,4-d]pyrimidin-4-amine]	–	–
123	524	CCC(c1cn(-c2ccccc2F)nn1)c1cc(-c2cncnc2OC)c2c(N)ncnn12 (single isomer, unassigned) [Example 66, 7-{1-[1-(2-fluorophenyl)-1H-1,2,3-triazol-4-yl]propyl}-5-(4-methoxypyrimidin-5-yl)pyrrolo[2,1-f][1,2,4]triazin-4-amine]	–	–
36.6	91.2	CCC(c1cn(-c2ccccc2F)nn1)c1cc(-c2cnc(C(F)(F)F)nc2)c2c(N)ncnn12 (single isomer, unassigned) [Example 58, 7-{1-[1-(2-fluorophenyl)-1H-1,2,3-triazol-4-yl]propyl}-5-[2-(trifluoromethyl)pyrimidin-5-yl]pyrrolo[2,1-f][1,2,4]triazin-4-amine]	–	–
189	219	CCC(c1cn(-c2ccccc2F)nn1)n1nc(-c2cnc(C(F)(F)F)nc2)c2c(N)ncnc21 (single isomer, unassigned) [Example 89, 1-{1-[1-(2-fluorophenyl)-1H-1,2,3-triazol-4-yl]propyl}-3-[2-(trifluoromethyl)pyrimidin-5-yl]-1H-pyrazolo[3,4-d]pyrimidin-4-amine]	–	–

More lines, now with the values behind:

Structure (SMILES)	EC50 (CFTR) [nM]	EC50 (F508del V470 CFTR) [nM]	percent predicted FEV1 increased (G551D)	improvement with monotherapy (F508del)
CC(C)(C)c1cc(C(C)(C)C)c(NC(=O)c2c[nH]c3ccccc3c2=O)cc1O [Kalydeco®, ivacaftor]	–	–	10-13%	did not lead to any appreciable improvement
CC(c1cn(-c2ccc(F)cc2F)nn1)c1c(C#N)c(-c2cnc(C(F)(F)F)nc2)c2c(N)ncnn12 (single isomer, unassigned) [Example 3, 4-amino-7-{1-[1-(2,4-difluorophenyl)-1H-1,2,3-triazol-4-yl]ethyl}-5-[2-(trifluoromethyl)pyrimidin-5-yl]pyrrolo[2,1-f][1,2,4]triazine-6-carbonitrile]	14.6	10.6	–	–
N#Cc1c(-c2cnc(C(F)(F)F)nc2)c2c(N)ncnn2c1Cc1cc(-c2ccccc2F)no1 [Example 35, 4-amino-7-{[3-(2-fluorophenyl)-1,2-oxazol-5-yl]methyl}-5-[2-(trifluoromethyl)pyrimidin-5-yl]pyrrolo[2,1-f][1,2,4]triazine-6-carbonitrile]	4	4.65	–	–
CCC(c1cnn(C(C)C)c1)c1c(C#N)c(-c2cnc(C(F)(F)F)nc2)c2c(N)ncnn12 (single isomer, unassigned) [Example 11, 4-amino-7-{1-[1-(propan-2-yl)-1H-pyrazol-4-yl]propyl}-5-[2-(trifluoromethyl)pyrimidin-5-yl]pyrrolo[2,1-f][1,2,4]triazine-6-carbonitrile]	6.96	4.17	–	–
CC(c1cn(-c2ccccc2F)nn1)c1c(C#N)c(-c2cnc(C(F)(F)F)nc2)c2c(N)ncnn12 (single isomer, unassigned) [Example 1, 4-amino-7-{1-[1-(2-fluorophenyl)-1H-1,2,3-triazol-4-yl]ethyl}-5-[2-(trifluoromethyl)pyrimidin-5-yl]pyrrolo[2,1-f][1,2,4]triazine-6-carbonitrile]	51.1	46.8	–	–
CCC(c1cn(-c2cc(F)ccc2F)nn1)c1c(C#N)c(-c2cnc(C(F)(F)F)nc2)c2c(N)ncnn12 (single isomer, unassigned) [Example 8, 4-amino-7-{1-[1-(2,5-difluorophenyl)-1H-1,2,3-triazol-4-yl]propyl}-5-[2-(trifluoromethyl)pyrimidin-5-yl]pyrrolo[2,1-f][1,2,4]triazine-6-carbonitrile]	13	17.2	–	–
N#Cc1c(-c2cnc(C(F)F)nc2)c2c(N)ncnn2c1Cc1cnn(-c2ccccc2F)c1 [Example 31, 4-amino-5-[2-(difluoromethyl)pyrimidin-5-yl]-7-{[1-(2-fluorophenyl)-1H-pyrazol-4-yl]methyl}pyrrolo[2,1-f][1,2,4]triazine-6-carbonitrile]	1.05	0.41	–	–
CCC(c1cn(-c2ccc(F)c(F)c2)nn1)c1c(C#N)c(-c2cnc(C(F)(F)F)nc2)c2c(N)ncnn12 (single isomer, unassigned) [Example 9, 4-amino-7-{1-[1-(3,4-difluorophenyl)-1H-1,2,3-triazol-4-yl]propyl}-5-[2-(trifluoromethyl)pyrimidin-5-yl]pyrrolo[2,1-f][1,2,4]triazine-6-carbonitrile]	28.4	41.2	–	–
N#Cc1c(-c2cnc(C(F)(F)F)nc2)c2c(N)ncnn2c1Cc1cnn(-c2ccccc2F)c1 [Example 30, 4-amino-7-{[1-(2-fluorophenyl)-1H-pyrazol-4-yl]methyl}-5-[2-(trifluoromethyl)pyrimidin-5-yl]pyrrolo[2,1-f][1,2,4]triazine-6-carbonitrile]	0.86	0.57	–	–
